Here are results for one compound from patent US20240350458A1, “14-3-3 PROTEIN MODULATORS AS ANTITUMOR AGENTS” (priority 2021, published 2024).

Some results are limits rather than exact numbers.

One data set has as its system NCI-H69. The data set is described as follows: MTT proliferation assay, SCLC. Format: cell-based. Conditions: Homo sapiens. Here is the method:
(§1) The antiproliferative activity was assessed by MTT proliferation assay (Table III) The anticancer activity was also investigated in a rare and lethal cancer (i.e. anaplastic thyroid cancer) by the use of three ATC-derived cell lines (Sw, FRO, 8505c). Again, the IC50 value after 72 h exposure was in the range of 10 to 50 nM. The same trend was also observed in four melanoma cell lines A2058, M14 (genotype BRAFV600E), SKMEL 197 e MEWO (genotype BRAF wild-type).
(§2) Table III IC50 expressed in μM and Emax (at 30 μM) for FC86 after 72 h exposure, were calculated by MTT assay
On the technique in general: Tetrazolium dyes change colour on reduction, which living cells bring about.

A further data set deals with NCI-H82. Nature of the data set: MTT proliferation assay, SCLC. Format: cell-based. Conditions: Homo sapiens. On the procedure:
as §1, §2

The next data set concerns 6647. Nature of the data set: MTT proliferation assay, Ewing sarcoma. Format: cell-based. Here is the method:
as §1, §2

The test system of a further data set is A673. The data set is described as follows: MTT proliferation assay, Ewing sarcoma. Format: cell-based. Conditions: Homo sapiens. On the procedure:
as §1, §2

A further data set relates to SKNMC. Nature of the data set: MTT proliferation assay, Ewing sarcoma. Conditions: Homo sapiens, SK-N-MC, 72 h exposure. In kind it is cell-based. On the procedure:
as §1, §2

In another data set the test system is TC-32. The data set is described as follows: MTT proliferation assay, Ewing sarcoma. Format: cell-based. Conditions: Homo sapiens. Here is the method: as §1, §2
The subject of a further data set is TC-71. The data set is described as follows: MTT proliferation assay, Ewing sarcoma. In kind it is cell-based. On the procedure: as §1, §2
In data set [1] the test system is CYP450 (CYP1A2, CYP2C9, CYP2C19, CYP2D6, CYP3A4). Nature of the data set: CYP450 inhibition (ADME-TOX profiling). Format: in vitro ADME. Conditions: 10 μM. Here is the method: To assess the ADME-TOX profile of selected compounds (FC91, FC86, FC85, a full panel of in vitro assays was performed as reported in Runfola et al. [Runfola M, Sestito S, Gul S, Chiellini G, Rapposelli S: Collecting data through high throughput in vitro early toxicity and off-target liability assays to rapidly identify limitations of novel thyromimetics. Data in brief 2020, 29:105206.]. Cytotoxic effects were evaluated on 4 different cell lines (U2OS, hTERT, HEK293, MCF-7) at 24 h and 48 h after treatment with tested compounds. Cardiac toxicity was assessed evaluating the inhibition effect of compounds on the hERG ion-channel, which is responsible of the withdrawn of several drugs in clinical trials. Metabolic interference was evaluated testing inhibitory effects of new compounds on five isoforms of CYP450 (CYP1A2, CYP2C9, CYP2C19, CYP2D6, CYP3A4). To assess off-target liabilities, the inhibitory effects have been assessed against several well-known off-targets. In particular, HDAC4, HDAC6, HDAC8, HDAC9, and SIRT7 were chosen as representatives of an undesirable epigenetic modulation. Moreover, compounds were screened against phosphodiesterase (PDE4C1), known for its role in cell survival and tumorigenesis. […] The data were collected and analyzed in the form of a traffic-light system using criteria shown below.

In data set [2] the test system is human lymphoma cell line TMD8. Nature of the data set: Lymphoma xenograft in Nod-Scid mice. In kind it is in vivo. Conditions: 100 mg/kg oral gavage once daily, five times per week. On the procedure: FIG. 6 reports ADME-TOX profiling of compounds FC91, FC85, and FC86 as explained in example 7 FIG. 7 reports the inhibition of the compound FC86 on tumor growth in xenograft models of lymphoma (TMD8 engrafted in NOD-Scid mice); vehicle group (blue line), n=9 mice; FC86 treated group (red line), n=9 mice (Example 8). Tumor volume expressed in cubic mm plus SEM (Student t-test); p<0.01.
To this purpose, the compound was administered by oral gavage to Nod-Scid mice engrafted with the human lymphoma cell line TMD8 (15 millions of cells in 100 uL PBS/mouse). […] Body conditions were not affected by the treatments.

Consider `Cc1ccc(S(=O)(=O)Nc2ccc3c(c2)/C(=C/c2cccs2)C(=O)N3)cc1` [FC86, N-[(3Z)-2-oxo-3-(thiophene-2-ylmethylidene)-2,3-dihydro-1H-indol-5-yl]-4-methylbenzenesulfonamide], for which the Emax at 30 µM with NCI-H69 (SCLC NCI-H69, 30 μM, 72 h) is 80%; in the data set on NCI-H82 (SCLC NCI-H82, 30 μM, 72 h), 55%; in the data set on 6647 (Ewing Sarcoma 6647, 30 μM, 72 h), 75%; in the data set on A673 (Ewing Sarcoma A673, 30 μM, 72 h), 85%; in the data set with TC-32 (Ewing Sarcoma TC-32, 30 μM, 72 h) it was 75%; in the data set with TC-71 (Ewing Sarcoma TC-71, 30 μM, 72 h) it was 95%. Also, the IC50 was 1.4 µM in the data set on NCI-H69 (SCLC NCI-H69, 72 h exposure); 3 µM in the data set on NCI-H82 (SCLC NCI-H82, 72 h exposure); 0.09 µM in the data set on 6647 (Ewing Sarcoma 6647, 72 h exposure); 3.2 µM in the data set on A673 (Ewing Sarcoma A673, 72 h exposure); above 30 µM in the data set on SKNMC; 0.03 µM with TC-32 (Ewing Sarcoma TC-32, 72 h exposure). In the data set with TC-71 (Ewing Sarcoma TC-71, 72 h exposure), this compound showed an IC50 of 0.8 µM. Further, in data set [1], the “inhibitory effect on CYP450 isoforms” value is reported as “did not show inhibitory effect”. The body conditions result in data set [2] is recorded as “not affected”. Also, the “tumor size vs vehicle at the end of the study” value in data set [2] is “two times smaller”. Further, the “tumor growth inhibition” value in data set [2] (p<0.01) is “significantly inhibit tumor growth”.

The term IC50 denotes the concentration at which inhibition is half-maximal.
